From PMC10174618, “Monoterpenoid aryl hydrocarbon receptor allosteric antagonists protect against ultraviolet skin damage in female mice” (Nature Communications, 2023)

How the values were obtained:
Assay in all cases: biochemical
Parameters in all cases: KINOMEscan scanMAX active site-directed competition binding assay, percent of control, 468 kinases
Settings in all cases: competition binding, percent of control
[1] = target: SIK2 (Homo sapiens, UniProt Q9H0K1)
Outline: (§1)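 Single-concentration screen (100 μM S-carvone) in a competition binding panel of 468 human kinases (KINOMEscan scanMAX); results given as percent of control, hit cutoff 35%.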

[2] = target: T1, MEK5 (Homo sapiens, UniProt Q13163)
T1 construct: gene MAP2K5
Outline: as §1

[3] = target: T2, BRK (Homo sapiens, UniProt Q13882)
T2 construct: gene PTK6
Outline: as §1

[4] = target: PIK3CB (Homo sapiens, UniProt P42338)
Outline: as §1

[5] = target: AURKB (Homo sapiens, UniProt Q96GD4)
Outline: as §1

[6] = target: NLK (Homo sapiens, UniProt Q9UBE8)
Outline: as §1

[7] = target: T3, MRCKA (Homo sapiens, UniProt Q5VT25)
T3 construct: gene CDC42BPA
Outline: as §1

[8] = target: PRKCE (Homo sapiens, UniProt Q02156)
Outline: as §1

[9] = target: CHEK2 (Homo sapiens, UniProt O96017)
Outline: as §1

[10] = target: PDPK1 (Homo sapiens, UniProt O15530)
Outline: as §1

[11] = target: T4, JNK3 (Homo sapiens, UniProt P53779)
T4 construct: gene MAPK10
Outline: as §1

[12] = target: MAP4K5 (Homo sapiens, UniProt Q9Y4K4)
Outline: as §1

[13] = target: RIOK2 (Homo sapiens, UniProt Q9BVS4)
Outline: as §1

[14] = target: T5, CDK11 (Homo sapiens, UniProt Q9BWU1)
T5 construct: gene CDK19
Outline: as §1

[15] = target: T6, RSK2(Kin.Dom.1-N-terminal) (Homo sapiens, UniProt P51812)
T6 construct: gene RPS6KA3; Kin.Dom.1-N-terminal
Outline: as §1

[16] = target: MAST1 (Homo sapiens, UniProt Q9Y2H9)
Outline: as §1

[17] = target: FYN (Homo sapiens, UniProt P06241)
Outline: as §1

[18] = target: T7, ABL1(T315I)-phosphorylated (Homo sapiens, UniProt P00519, T315I)
T7 construct: phosphorylated
Outline: as §1

[19] = target: T8, YANK1 (Homo sapiens, UniProt Q8WU08)
T8 construct: gene STK32A
Outline: as §1

[20] = target: MAP4K4 (Homo sapiens, UniProt O95819)
Outline: as §1

[21] = target: T9, PYK2 (Homo sapiens, UniProt Q14289)
T9 construct: gene PTK2B
Outline: as §1

T9 sequence (Q14289 whole entry): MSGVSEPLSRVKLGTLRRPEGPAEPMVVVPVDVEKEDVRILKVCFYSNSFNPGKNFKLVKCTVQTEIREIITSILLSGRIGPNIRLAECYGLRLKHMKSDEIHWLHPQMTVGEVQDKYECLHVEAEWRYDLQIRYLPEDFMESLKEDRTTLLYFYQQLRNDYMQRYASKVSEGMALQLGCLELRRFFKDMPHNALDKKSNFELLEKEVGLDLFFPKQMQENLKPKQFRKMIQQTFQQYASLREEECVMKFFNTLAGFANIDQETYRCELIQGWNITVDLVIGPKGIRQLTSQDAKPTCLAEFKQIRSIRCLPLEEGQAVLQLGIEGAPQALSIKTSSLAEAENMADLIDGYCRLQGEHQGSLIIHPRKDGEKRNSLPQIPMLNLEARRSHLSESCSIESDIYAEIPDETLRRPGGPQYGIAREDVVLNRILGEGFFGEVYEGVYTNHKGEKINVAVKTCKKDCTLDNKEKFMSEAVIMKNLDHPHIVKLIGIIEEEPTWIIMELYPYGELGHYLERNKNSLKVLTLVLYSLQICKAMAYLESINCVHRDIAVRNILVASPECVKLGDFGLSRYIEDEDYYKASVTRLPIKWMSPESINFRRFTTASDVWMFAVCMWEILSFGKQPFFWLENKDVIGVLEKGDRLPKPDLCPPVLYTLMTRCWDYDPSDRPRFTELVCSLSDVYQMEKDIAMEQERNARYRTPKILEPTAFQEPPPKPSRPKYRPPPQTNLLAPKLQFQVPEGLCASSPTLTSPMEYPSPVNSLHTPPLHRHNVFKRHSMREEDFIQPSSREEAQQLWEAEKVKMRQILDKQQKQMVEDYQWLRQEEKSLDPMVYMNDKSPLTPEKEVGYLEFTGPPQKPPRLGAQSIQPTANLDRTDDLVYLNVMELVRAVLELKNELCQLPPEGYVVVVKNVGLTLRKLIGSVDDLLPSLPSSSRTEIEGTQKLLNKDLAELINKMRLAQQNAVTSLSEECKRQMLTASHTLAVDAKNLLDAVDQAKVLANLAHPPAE
Chain of MAP4K4 (O95819 whole entry): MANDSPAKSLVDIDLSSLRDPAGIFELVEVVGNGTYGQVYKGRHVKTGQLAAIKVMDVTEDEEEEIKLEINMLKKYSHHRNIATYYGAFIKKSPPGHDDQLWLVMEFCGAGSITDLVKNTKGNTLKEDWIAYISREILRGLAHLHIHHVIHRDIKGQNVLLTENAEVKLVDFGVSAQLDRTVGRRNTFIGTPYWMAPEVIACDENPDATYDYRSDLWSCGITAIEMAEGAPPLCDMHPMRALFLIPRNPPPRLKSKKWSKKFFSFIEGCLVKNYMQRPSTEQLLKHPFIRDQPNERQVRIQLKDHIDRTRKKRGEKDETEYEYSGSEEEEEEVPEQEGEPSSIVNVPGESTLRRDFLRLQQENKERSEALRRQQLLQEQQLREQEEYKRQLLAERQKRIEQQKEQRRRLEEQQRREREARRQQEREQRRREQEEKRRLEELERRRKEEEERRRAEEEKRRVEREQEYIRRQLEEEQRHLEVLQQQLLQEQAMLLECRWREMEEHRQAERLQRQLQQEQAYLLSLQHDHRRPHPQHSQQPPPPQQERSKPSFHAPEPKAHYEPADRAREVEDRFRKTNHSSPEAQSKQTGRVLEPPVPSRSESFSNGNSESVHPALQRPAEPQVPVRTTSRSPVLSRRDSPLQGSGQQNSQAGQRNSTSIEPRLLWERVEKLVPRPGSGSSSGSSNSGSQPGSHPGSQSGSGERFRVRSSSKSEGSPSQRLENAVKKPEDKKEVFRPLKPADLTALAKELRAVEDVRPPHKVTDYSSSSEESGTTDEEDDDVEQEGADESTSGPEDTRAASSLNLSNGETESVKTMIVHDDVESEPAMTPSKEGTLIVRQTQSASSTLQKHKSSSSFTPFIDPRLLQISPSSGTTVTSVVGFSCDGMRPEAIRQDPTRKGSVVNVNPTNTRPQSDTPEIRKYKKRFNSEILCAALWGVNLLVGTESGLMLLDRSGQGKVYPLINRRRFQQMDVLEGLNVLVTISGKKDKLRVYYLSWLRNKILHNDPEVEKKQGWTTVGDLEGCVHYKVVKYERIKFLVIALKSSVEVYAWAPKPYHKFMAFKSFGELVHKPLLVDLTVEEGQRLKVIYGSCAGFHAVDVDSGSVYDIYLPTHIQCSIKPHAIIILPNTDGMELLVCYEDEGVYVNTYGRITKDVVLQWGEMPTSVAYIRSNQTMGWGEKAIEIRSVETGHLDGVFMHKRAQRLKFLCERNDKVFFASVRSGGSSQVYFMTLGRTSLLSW
Chain of AURKB (Q96GD4 whole entry): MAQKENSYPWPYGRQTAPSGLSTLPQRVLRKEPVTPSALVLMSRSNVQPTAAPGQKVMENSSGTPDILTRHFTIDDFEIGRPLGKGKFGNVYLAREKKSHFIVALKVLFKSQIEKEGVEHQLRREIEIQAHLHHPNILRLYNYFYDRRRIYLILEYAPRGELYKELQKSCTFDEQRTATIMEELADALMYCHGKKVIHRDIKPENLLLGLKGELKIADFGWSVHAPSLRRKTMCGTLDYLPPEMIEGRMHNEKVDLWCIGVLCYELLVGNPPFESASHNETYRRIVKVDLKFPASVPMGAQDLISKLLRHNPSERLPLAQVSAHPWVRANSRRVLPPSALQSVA
T6 sequence (P51812 whole entry): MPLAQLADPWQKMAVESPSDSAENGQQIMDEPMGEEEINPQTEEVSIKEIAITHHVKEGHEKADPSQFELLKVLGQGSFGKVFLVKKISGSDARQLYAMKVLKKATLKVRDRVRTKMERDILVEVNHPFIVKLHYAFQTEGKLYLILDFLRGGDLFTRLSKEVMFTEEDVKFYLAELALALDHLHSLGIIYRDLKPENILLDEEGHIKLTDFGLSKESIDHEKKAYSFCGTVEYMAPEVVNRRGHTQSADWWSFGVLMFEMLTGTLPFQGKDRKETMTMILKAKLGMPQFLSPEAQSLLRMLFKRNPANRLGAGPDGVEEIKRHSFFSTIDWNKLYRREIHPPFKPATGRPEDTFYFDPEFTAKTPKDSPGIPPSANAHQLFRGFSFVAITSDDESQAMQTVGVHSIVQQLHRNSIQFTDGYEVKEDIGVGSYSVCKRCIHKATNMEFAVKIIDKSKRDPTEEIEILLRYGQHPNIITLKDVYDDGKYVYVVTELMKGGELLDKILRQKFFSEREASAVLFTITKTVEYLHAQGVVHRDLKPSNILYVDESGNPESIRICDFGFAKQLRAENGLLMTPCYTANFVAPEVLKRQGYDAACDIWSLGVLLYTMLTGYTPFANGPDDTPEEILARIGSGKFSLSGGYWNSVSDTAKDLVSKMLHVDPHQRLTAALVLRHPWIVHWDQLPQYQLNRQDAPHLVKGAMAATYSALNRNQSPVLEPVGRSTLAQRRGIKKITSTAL
T8 sequence (Q8WU08 whole entry): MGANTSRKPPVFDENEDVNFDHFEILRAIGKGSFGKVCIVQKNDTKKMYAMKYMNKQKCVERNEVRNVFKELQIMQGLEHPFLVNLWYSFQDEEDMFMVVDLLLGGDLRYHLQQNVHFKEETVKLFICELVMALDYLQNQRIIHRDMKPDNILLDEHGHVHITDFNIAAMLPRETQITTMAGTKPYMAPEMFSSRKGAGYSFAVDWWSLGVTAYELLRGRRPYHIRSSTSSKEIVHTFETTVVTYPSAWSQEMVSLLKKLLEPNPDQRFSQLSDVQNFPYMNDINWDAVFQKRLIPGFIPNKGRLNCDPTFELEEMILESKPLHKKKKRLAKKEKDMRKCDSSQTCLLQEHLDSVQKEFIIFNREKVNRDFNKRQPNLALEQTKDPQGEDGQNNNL
Chain of SIK2 (Q9H0K1 whole entry): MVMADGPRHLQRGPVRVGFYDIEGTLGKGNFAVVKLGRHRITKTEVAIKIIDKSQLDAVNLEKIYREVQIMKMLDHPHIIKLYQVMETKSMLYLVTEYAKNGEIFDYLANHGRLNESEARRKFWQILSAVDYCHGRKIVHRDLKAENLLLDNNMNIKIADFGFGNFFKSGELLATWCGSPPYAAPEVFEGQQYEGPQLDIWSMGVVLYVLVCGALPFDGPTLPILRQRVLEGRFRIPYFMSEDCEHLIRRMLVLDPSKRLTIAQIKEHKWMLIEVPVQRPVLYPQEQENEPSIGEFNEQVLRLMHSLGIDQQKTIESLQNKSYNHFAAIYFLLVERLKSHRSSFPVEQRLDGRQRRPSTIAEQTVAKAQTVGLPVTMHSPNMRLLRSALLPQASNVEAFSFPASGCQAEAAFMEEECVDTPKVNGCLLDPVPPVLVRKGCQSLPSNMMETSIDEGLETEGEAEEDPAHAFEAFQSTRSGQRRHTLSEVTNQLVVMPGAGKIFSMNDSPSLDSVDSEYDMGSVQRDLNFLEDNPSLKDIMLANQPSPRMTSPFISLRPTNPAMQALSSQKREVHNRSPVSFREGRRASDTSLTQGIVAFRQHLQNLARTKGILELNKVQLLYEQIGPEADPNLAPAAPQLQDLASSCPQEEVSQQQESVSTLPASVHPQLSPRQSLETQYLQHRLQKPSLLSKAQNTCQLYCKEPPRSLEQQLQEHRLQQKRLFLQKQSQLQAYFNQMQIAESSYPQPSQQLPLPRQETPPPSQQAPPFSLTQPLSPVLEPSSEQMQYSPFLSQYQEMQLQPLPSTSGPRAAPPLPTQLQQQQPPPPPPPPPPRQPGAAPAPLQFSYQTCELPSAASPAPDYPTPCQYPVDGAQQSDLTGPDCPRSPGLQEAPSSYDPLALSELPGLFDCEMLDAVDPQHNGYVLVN

remaining binding at 100 µM [1]: 76%
remaining binding at 100 µM [2]: 74%
remaining binding at 100 µM [3]: 86%
remaining binding at 100 µM [4]: 88%
remaining binding at 100 µM [5]: 68%
remaining binding at 100 µM [6]: 81%
remaining binding at 100 µM [7]: 80%
remaining binding at 100 µM [8]: 94%
remaining binding at 100 µM [9]: 99%
remaining binding at 100 µM [10]: 74%
remaining binding at 100 µM [11]: 88%
remaining binding at 100 µM [12]: 85%
remaining binding at 100 µM [13]: 90%
remaining binding at 100 µM [14]: 98%
remaining binding at 100 µM [15]: 89%
remaining binding at 100 µM [16]: 75%
remaining binding at 100 µM [17]: 90%
remaining binding at 100 µM [18]: 88%
remaining binding at 100 µM [19]: 78%
remaining binding at 100 µM [20]: 85%
remaining binding at 100 µM [21]: 80%
SMILES: C=C(C)[C@H]1CC=C(C)C(=O)C1 [S-carvone]
